From PMC11012124, “Synthesis of Novel Triazine-Based Chalcones and 8,9-dihydro-7H-pyrimido[4,5-b][1,4]diazepines as Potential Leads in the Search of Anticancer, Antibacterial and Antifungal Agents” (International Journal of Molecular Sciences, 2024)

How the values were obtained:
[1] = Hemolytic activity, spectrophotometric; type: cell-based, human; settings: human, human red blood cells (huRBC), 5% hematocrit, 200 μg/mL, 37 °C
CCRF-CEM = experiment: cells; settings: Homo sapiens, 48 h; for CC50: read-out: LC50
HL-60(TB) = experiment: cells; settings: Homo sapiens, HL-60, 48 h; for CC50: read-out: LC50
K-562 = experiment: cells; settings: Homo sapiens, K562, 48 h; for GI50: K-562, 48 h; for CC50: read-out: LC50
EKVX = experiment: cells; settings: Homo sapiens, 48 h; for CC50: read-out: LC50
HOP-62 = experiment: cells; settings: Homo sapiens, HOP-62, 48 h; for CC50: read-out: LC50
NCI-H322M = experiment: cells; settings: Homo sapiens, 48 h; for CC50: read-out: LC50
NCI-H460 = experiment: cells; settings: Homo sapiens, NCI-H460, 48 h; for CC50: read-out: LC50
COLO 205 = experiment: cells; settings: Homo sapiens, COLO 205, 48 h; for CC50: read-out: LC50
HCC-2998 = experiment: cells; settings: Homo sapiens, HCC 2998, 48 h
HCT-15 = experiment: cells; settings: Homo sapiens, HCT-15, 48 h; for CC50: read-out: LC50
HT29 = experiment: cells; settings: Homo sapiens, HT-29, 48 h
KM12 = experiment: cells; settings: Homo sapiens, KM12, 48 h
SF-268 = experiment: cells; settings: Homo sapiens, SF-268, 48 h; for CC50: read-out: LC50
SF-295 = experiment: cells; settings: Homo sapiens, SF-295, 48 h; for CC50: read-out: LC50
SF-539 = experiment: cells; settings: Homo sapiens, SF-539, 48 h
SNB-75 = experiment: cells; settings: Homo sapiens, SNB-75, 48 h; for CC50: read-out: LC50
MALME-3M = experiment: cells; settings: Homo sapiens, 48 h; for CC50: read-out: LC50
M14 = experiment: cells; settings: Homo sapiens, M14, 48 h; for CC50: read-out: LC50
SK-MEL-28 = experiment: cells; settings: Homo sapiens, SK-MEL-28, 48 h; for CC50: read-out: LC50
SK-MEL-5 = experiment: cells; settings: Homo sapiens, SK-MEL-5, 48 h
UACC-257 = experiment: cells; settings: Homo sapiens, UACC-257, 48 h; for CC50: read-out: LC50
UACC-62 = experiment: cells; settings: Homo sapiens, UACC-62, 48 h
OVCAR-3 = experiment: cells; settings: Homo sapiens, OVCAR-3, 48 h; for CC50: read-out: LC50
OVCAR-4 = experiment: cells; settings: Homo sapiens, OVCAR-4, 48 h; for CC50: read-out: LC50
OVCAR-5 = experiment: cells; settings: Homo sapiens, OVCAR-5, 48 h; for CC50: read-out: LC50
OVCAR-8 = experiment: cells; settings: Homo sapiens, OVCAR-8, 48 h
SK-OV-3 = experiment: cells; settings: Homo sapiens, SK-OV-3, 48 h; for CC50: read-out: LC50
786-0 = experiment: cells; settings: Homo sapiens, 786-0, 48 h; for CC50: read-out: LC50
A498 = experiment: cells; settings: Homo sapiens, A498, 48 h; for CC50: read-out: LC50
CAKI-1 = experiment: cells; settings: Homo sapiens, CAKI-1, 48 h; for CC50: read-out: LC50
RXF 393 = experiment: cells; settings: Homo sapiens, RXF 393, 48 h
SN12C = experiment: cells; settings: Homo sapiens, 48 h; for CC50: read-out: LC50
TK-10 = experiment: cells; settings: Homo sapiens, TK-10, 48 h; for CC50: read-out: LC50
UO-31 = experiment: cells; settings: Homo sapiens, UO-31, 48 h
MCF7 = experiment: cells; settings: Homo sapiens, MCF7, 48 h; for CC50: read-out: LC50
HS 578T = experiment: cells; settings: Homo sapiens, 48 h; for CC50: read-out: LC50
MDA-MB-468 = experiment: cells; settings: Homo sapiens, MDA-MB-468, 48 h

CN(C)c1nc(NCCNS(=O)(=O)c2ccc(C3=Nc4c(N)nc(N)nc4NC(c4ccccc4)C3)cc2)nc(Nc2ccc(F)cc2)n1 (stereo not drawn) [31a]
hemolysis at 24 h, 200 µg/mL [1]: 1%
GI50 (CCRF-CEM): 4.02 µM
CC50 (CCRF-CEM): > 100 µM
GI50 (HL-60(TB)): 4.24 µM
CC50 (HL-60(TB)): > 100 µM
GI50 (K-562): 4.33 µM
CC50 (K-562): > 100 µM
GI50 (EKVX): 6.65 µM
CC50 (EKVX): > 100 µM
GI50 (HOP-62): 99.7 µM
CC50 (HOP-62): > 100 µM
GI50 (NCI-H322M): > 100 µM
CC50 (NCI-H322M): > 100 µM
GI50 (NCI-H460): 6.49 µM
CC50 (NCI-H460): > 100 µM
GI50 (COLO 205): 16.4 µM
CC50 (COLO 205): > 100 µM
GI50 (HCC-2998): 11.7 µM
CC50 (HCC-2998; read-out: LC50): > 100 µM
GI50 (HCT-15): > 100 µM
CC50 (HCT-15): > 100 µM
GI50 (HT29): 5.32 µM
CC50 (HT29; read-out: LC50): > 100 µM
GI50 (KM12): 8.8 µM
CC50 (KM12; read-out: LC50): > 100 µM
GI50 (SF-268): 9.85 µM
CC50 (SF-268): > 100 µM
GI50 (SF-295): 9.49 µM
CC50 (SF-295): > 100 µM
GI50 (SF-539): 12 µM
CC50 (SF-539; read-out: LC50, SF-539, 48 h): 63.8 µM
GI50 (SNB-75): 3.58 µM
CC50 (SNB-75): > 100 µM
GI50 (MALME-3M): 7.34 µM
CC50 (MALME-3M): > 100 µM
GI50 (M14): 24.4 µM
CC50 (M14): > 100 µM
GI50 (SK-MEL-28): > 100 µM
CC50 (SK-MEL-28): > 100 µM
GI50 (SK-MEL-5): 5.81 µM
CC50 (SK-MEL-5; read-out: LC50): 20.5 µM
GI50 (UACC-257): 87.2 µM
CC50 (UACC-257): > 100 µM
GI50 (UACC-62): 31.5 µM
CC50 (UACC-62; read-out: LC50): > 100 µM
GI50 (OVCAR-3): 69.3 µM
CC50 (OVCAR-3): > 100 µM
GI50 (OVCAR-4): 74.6 µM
CC50 (OVCAR-4): > 100 µM
GI50 (OVCAR-5): > 100 µM
CC50 (OVCAR-5): > 100 µM
GI50 (OVCAR-8): 61.4 µM
CC50 (OVCAR-8; read-out: LC50): > 100 µM
GI50 (SK-OV-3): > 100 µM
CC50 (SK-OV-3): > 100 µM
GI50 (786-0): 7.88 µM
CC50 (786-0): > 100 µM
CC50 (A498): > 100 µM
GI50 (CAKI-1): 9.73 µM
CC50 (CAKI-1): > 100 µM
GI50 (RXF 393): 2.55 µM
CC50 (RXF 393; read-out: LC50): 8.95 µM
GI50 (SN12C): 7.83 µM
CC50 (SN12C): > 100 µM
GI50 (TK-10): > 100 µM
CC50 (TK-10): > 100 µM
GI50 (UO-31): > 100 µM
CC50 (UO-31; read-out: LC50): > 100 µM
GI50 (MCF7): 3.85 µM
CC50 (MCF7): 85.5 µM
GI50 (HS 578T): 6.43 µM
CC50 (HS 578T): > 100 µM
GI50 (MDA-MB-468): 3.37 µM
CC50 (MDA-MB-468; read-out: LC50): 13.7 µM

COc1cc(/C=C/C(=O)c2ccc(C)cc2)ccc1Oc1nc(NCCO)nc(N2CCOCC2)n1 [20b]
hemolysis at 24 h, 200 µg/mL [1]: 3.3%
GI50 (CCRF-CEM): 2.71 µM
CC50 (CCRF-CEM): > 100 µM
GI50 (HL-60(TB)): 2.07 µM
CC50 (HL-60(TB)): > 100 µM
GI50 (K-562): 1.53 µM
CC50 (K-562): > 100 µM
GI50 (EKVX): 3.9 µM
CC50 (EKVX): > 100 µM
GI50 (HOP-62): 16.6 µM
CC50 (HOP-62): > 100 µM
GI50 (NCI-H322M): 6.24 µM
CC50 (NCI-H322M): > 100 µM
GI50 (NCI-H460): 2.2 µM
CC50 (NCI-H460): > 100 µM
GI50 (COLO 205): 2.64 µM
CC50 (COLO 205): > 100 µM
GI50 (HCC-2998): 2.08 µM
GI50 (HCT-15): 1.78 µM
CC50 (HCT-15): > 100 µM
GI50 (HT29): 1.85 µM
GI50 (KM12): 1.85 µM
GI50 (SF-268): 2.9 µM
CC50 (SF-268): > 100 µM
CC50 (SF-295): > 100 µM
GI50 (SF-539): 1.88 µM
GI50 (SNB-75): > 100 µM
CC50 (SNB-75): > 100 µM
GI50 (MALME-3M): 2.29 µM
CC50 (MALME-3M): > 100 µM
GI50 (M14): 2.03 µM
CC50 (M14): > 100 µM
GI50 (SK-MEL-28): 2.5 µM
CC50 (SK-MEL-28): > 100 µM
GI50 (SK-MEL-5): 2 µM
GI50 (UACC-257): 3.98 µM
CC50 (UACC-257): > 100 µM
GI50 (UACC-62): 2.01 µM
GI50 (OVCAR-3): 2.49 µM
CC50 (OVCAR-3): > 100 µM
GI50 (OVCAR-4): 3.92 µM
CC50 (OVCAR-4): > 100 µM
GI50 (OVCAR-5): 3.22 µM
CC50 (OVCAR-5): > 100 µM
GI50 (OVCAR-8): 1.76 µM
GI50 (SK-OV-3): 23 µM
CC50 (SK-OV-3): > 100 µM
GI50 (786-0): 2.18 µM
CC50 (786-0): > 100 µM
GI50 (A498): > 100 µM
CC50 (A498): > 100 µM
GI50 (CAKI-1): 5.02 µM
CC50 (CAKI-1): > 100 µM
GI50 (RXF 393): 2.07 µM
GI50 (SN12C): 2.35 µM
CC50 (SN12C): > 100 µM
GI50 (TK-10): > 100 µM
CC50 (TK-10): > 100 µM
GI50 (UO-31): 1.49 µM
GI50 (MCF7): 1.5 µM
CC50 (MCF7): > 100 µM
GI50 (HS 578T): 4.6 µM
CC50 (HS 578T): > 100 µM
GI50 (MDA-MB-468): 1.98 µM
